Assay results as given in paper PMC8637440, “Structural Modifications Yield Novel Insights Into the Intriguing Pharmacodynamic Potential of Anti-inflammatory Nitro-Fatty Acids” (Frontiers in Pharmacology, 2021).
“And” between values parts separate entries of the source, which are not always exact repeats. Equal entries are not always repeated.

Assays:
5-LO = target: T1, 5-LO (Homo sapiens, UniProt P09917); assay: 5-LO product formation (LTB4, 5-HETE) in intact PMNL, A23187 + 20 µM AA; format: cell-based; conditions: 15 min preincubation, A23187 2.5 µM + 20 µM AA, n.i. = no inhibition observed; for PMNL (20 µM AA) 5-HETE IC50 / PMNL (20 µM AA) LTB4 IC50: intact PMNL
T1 construct: endogenous in cells; host or cells: human PMNL from buffy coats
T1 sequence (P09917 1-674): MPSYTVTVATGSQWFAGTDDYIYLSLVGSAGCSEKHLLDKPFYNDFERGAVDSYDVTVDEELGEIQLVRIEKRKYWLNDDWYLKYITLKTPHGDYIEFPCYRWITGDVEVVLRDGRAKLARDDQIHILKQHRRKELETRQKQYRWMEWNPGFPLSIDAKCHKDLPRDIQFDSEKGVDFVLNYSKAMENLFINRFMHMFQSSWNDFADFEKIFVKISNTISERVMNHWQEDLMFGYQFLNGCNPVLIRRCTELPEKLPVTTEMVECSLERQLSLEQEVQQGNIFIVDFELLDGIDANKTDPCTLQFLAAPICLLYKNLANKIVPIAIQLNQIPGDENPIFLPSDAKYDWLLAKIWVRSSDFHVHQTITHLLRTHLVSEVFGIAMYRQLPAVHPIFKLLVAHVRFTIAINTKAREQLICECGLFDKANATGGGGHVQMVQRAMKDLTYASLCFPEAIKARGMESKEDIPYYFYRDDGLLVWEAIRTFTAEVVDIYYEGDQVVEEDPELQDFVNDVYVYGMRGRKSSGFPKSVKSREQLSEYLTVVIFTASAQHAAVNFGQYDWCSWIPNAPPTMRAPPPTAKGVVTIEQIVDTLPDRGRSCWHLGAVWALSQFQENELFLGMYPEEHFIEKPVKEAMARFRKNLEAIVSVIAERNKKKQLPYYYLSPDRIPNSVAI
Description: Buffy coats from different donors of different blood types were commercially obtained from DRK Blutspendedienst Baden-Württemberg Institute Frankfurt. Donors have given their written consent. […] Following separation, the supernatant was transferred very gently to new 50-ml tubes containing lymphocyte separation medium (LSM) and centrifuged for 10 min at 800 ×g at RT with the centrifuge brake turned off. Afterwards, the supernatant was decanted carefully to discard the platelets and monocytes. The PMNL were washed with 1× PBS before the residual erythrocytes were lysed in two cycles: the cell pellet was resuspended with 10 ml H2O and vortexed for 45 s, and lysis was stopped with 40 ml 1 × PBS. After 10-min centrifugation at 200 ×g at RT, the cycle was repeated once. The supernatant was aspirated, the cell pellet resuspended in 5 ml PBS/glucose and initially separated PMNL preparations with different blood types were finally pooled to gain a sufficient number of cells. […] The enzyme was diluted in PBS/EDTA/ATP, transferred into 5-ml glass tubes, and stored on ice. […] The reaction was stopped by placing the glass tubes on ice. The supernatants were transferred to 1.5 ml reaction tubes and stored at −80°C before LC-MS (liquid chromatography and mass spectrometry) analysis of LTB4 and HETEs as described in 2.6 at the Institute of Pharmacology, Goethe University, University Hospital, Germany. The lipid mediators LTB4, hydroxyeicosatetraenoic acids, 5(S)-HETE, 12(S)-HETE, 15(S)-HETE and 20-HETE were analyzed using liquid chromatography tandem-mass spectroscopy (LC-MS/MS). The LC-MS/MS system consisted of a 5500 QTrap mass spectrometer (Sciex, Darmstadt, Germany), operating in negative ESI mode, an Agilent 1200 HPLC system (Agilent, Waldbronn, Germany) and an HTC Pal autosampler (Chromtech, Idstein, Germany). Sample extraction of LTB4 and HETEs were performed using liquid-liquid extraction: 200 µl of the sample were gently mixed with 20 µl of methanol and 20 µl of internal standard solution and extracted twice with 600 µl ethyl acetate. […] Working solutions of all analytes were prepared in methanol containing 0.1% BHT. The calibration standards were prepared by further dilution of the working standards. […] The residues were reconstituted in 50 µl of methanol:water:BHT (50:50:10^−4, v/v/v) prior to injection into the LC-MS/MS system. Chromatographic separation was achieved using a Gemini NX C18 column (150 mm × 2 mm ID, 5 µm, Phenomenex, Aschaffenburg, Germany) with a precolumn of the same material. A linear gradient was employed at a flow rate of 0.5 ml/min and a total run time of 17.5 min. Mobile phases were A water:ammonia (100:0.05, v/v) and B acetonitrile:ammonia (100:0.05, v/v). […] All data were acquired using Analyst software v1.6.2 and quantitation was performed by MultiQuant software v3.0 (both Sciex, Darmstadt, Germany) using the internal standard method (isotope-dilution mass spectrometry). Calibration curves were calculated by linear regression with 1/x.

HCT-116 cells = assay: WST-1 cell viability assay, HCT-116; format: cell-based, human; conditions: for IC50: Homo sapiens, HCT-116; for cytotoxic potency higher compared to 9NOA: HCT-116 and HT-29 cells
Description: Cell viability was analyzed with the WST-1 assay based on the cleavage of the stable tetrazolium salt WST-1 by the mitochondrial reductase system. Cells were seeded in the appropriate densities in a clear 96-well plate and settled overnight at 37°C in 5% CO2. The next day, the cells were treated with NFA or the substances of interest (≤0.1% dimethyl sulfoxide [DMSO]) and incubated for 24 or 48 h at 37°C in 5% CO2. Cell viability was analyzed by adding 10 µl WST-1 solution (Roche, Basel, Switzerland) and subsequently incubating the cells at 37°C for another 30–40 min. Absorbance was measured at 450 nm with a control wavelength at 620 nm using a plate reader.
Besides targeting the NF-κB pathway, the anti-tumorigenic effects of NFA can be observed by a reduction of colorectal cancer cell viability. […] Again, the cytotoxic effects of NFA were determined in HCT-116 and HT-29 colorectal cancer cells in the present study. […] HCT-116 cells were treated with increasing concentrations of NFA differing in chain length and Michael acceptor position for 24 h, and cell viability was determined using the WST-1 assay. Due to their prolonged cell division rate and their lack of sensitivity towards NFA ([Kühn et al., 2018]), HT-29 cells were treated for 48 h to gain improved NFA activity.

[1] = WST-1 cell viability, 24 h, n.i. = no inhibition observed
[2] = PMNL (20 µM AA) 5-HETE IC50, intact PMNL
[3] = PMNL (20 µM AA) LTB4 IC50, intact PMNL

| Compound | PMNL (20 µM AA) 5-HETE IC50 (5-LO) | PMNL (20 µM AA) LTB4 IC50 (5-LO) | IC50 (HCT-116 cells; [1]) | IC50 (5-LO; [2]) | IC50 (5-LO; [3]) | cytotoxic potency higher compared to 9NOA (HCT-116 cells) | HCT-116 (24 h) IC50 (HCT-116 cells; [1]) |
| --- | --- | --- | --- | --- | --- | --- | --- |
| CCCCC=C(CCCCCCCC(=O)O)[N+](=O)[O-] [14.9.9, 9-nitro-tetradec-9-enoic acid] | n.i. | n.i. | 16.8 ± 1.1 µM | – | – | – | – |
| CCCCCCCCCCCCCC=C(CCC(=O)O)[N+](=O)[O-] [18.4.4, 4-nitro-octadec-4-enoic acid] | – | – | 18.6 ± 1.1 µM | 9.2 ± 1.2 µM | 10.6 ± 1.1 µM | – | – |
| CCCCCCCCCCCC=C(CCCCC(=O)O)[N+](=O)[O-] [18.6.6, 6-nitro-octadec-6-enoic acid] | – | – | 7.6 ± 1.1 µM | 9.1 ± 1.2 µM | 7.7 ± 1.1 µM | – | – |
| CCCCCCCCCC(=CCCCCCCC(=O)O)[N+](=O)[O-] [18.8.9, 9-nitro-octadec-8-enoic acid] | – | – | 4.6 ± 1.1 µM | 7.7 ± 1.2 µM | 5.7 ± 1.2 µM | – | – |
| CCCCCCCCC=C(CCCCCCCC(=O)O)[N+](=O)[O-] [18.9.9, 9-nitro-octadec-9-enoic acid] | – | – | 6.4 ± 1.2 µM | 5.9 µM and 6.1 µM | 4.8 ± 1.8 µM | – | – |
| CCCCCCC=C(CCCCCCCCCC(=O)O)[N+](=O)[O-] [18.11.11, 11-nitro-octadec-11-enoic acid] | – | – | 16 ± 1.1 µM | 5.7 ± 1.1 µM | 5.9 ± 1.1 µM | – | – |
| CCCCCCCC/C=C\CCCCCCCC(=O)O [OA, oleic acid, reference compound] | n.i. | n.i. | – | – | – | – | failed to induce cytotoxic effects and n.i. |

More lines, main results first:

| PMNL (20 µM AA) 5-HETE IC50 (5-LO) | PMNL (20 µM AA) LTB4 IC50 (5-LO) | IC50 (HCT-116 cells; [1]) | IC50 (5-LO; [2]) | IC50 (5-LO; [3]) | Compound | cytotoxic potency higher compared to 9NOA (HCT-116 cells) | HCT-116 (24 h) IC50 (HCT-116 cells; [1]) |
| --- | --- | --- | --- | --- | --- | --- | --- |
| n.i. | n.i. | 23.1 ± 1.1 µM | – | – | CCC=C(CCCCCCCC(=O)O)[N+](=O)[O-] [12.9.9, 9-nitro-dodec-9-enoic acid] | – | – |
| – | – | 10.5 ± 1.1 µM | 10.8 ± 1.1 µM | 12 ± 1.1 µM | CCCCCCC=C(CCCCCCCC(=O)O)[N+](=O)[O-] [16.9.9, 9-nitro-hexadec-9-enoic acid] | – | – |
| – | – | 11.6 ± 1.1 µM | 7.5 ± 1.1 µM | 9 ± 1.1 µM | CCCCCCCCCCCCC=C(CCCC(=O)O)[N+](=O)[O-] [18.5.5, 5-nitro-octadec-5-enoic acid] | – | – |
| – | – | 8.1 ± 1.1 µM | 11.2 ± 1.2 µM | 8.3 ± 1.1 µM | CCCCCCCCCCCC(=CCCCCC(=O)O)[N+](=O)[O-] [18.6.7, 7-nitro-octadec-6-enoic acid] | – | – |
| – | – | 2.7 ± 1.1 µM | 4.9 ± 1.1 µM | 4.3 ± 1.1 µM | CCCCCCCCCCC=C(CCCCCC(=O)O)[N+](=O)[O-] [18.7.7, 7-nitro-octadec-7-enoic acid] | > 2 fold | – |
| – | – | 2.1 ± 1.1 µM | 6.6 ± 1.1 µM | 7.9 ± 1.1 µM | CCCCCCCCCC=C(CCCCCCC(=O)O)[N+](=O)[O-] [18.8.8, 8-nitro-octadec-8-enoic acid] | > 2 fold | – |
| – | – | 13.5 ± 1.1 µM | 6.9 ± 1.1 µM | 5 ± 1.1 µM | CCCCCCCCC(=CCCCCCCCC(=O)O)[N+](=O)[O-] [18.9.10, 10-nitro-octadec-9-enoic acid] | – | – |
| – | – | 13.6 ± 1.1 µM | 6 ± 1.2 µM | 7 ± 1.1 µM | CCCCCCCC=C(CCCCCCCCC(=O)O)[N+](=O)[O-] [18.10.10, 10-nitro-octadec-10-enoic acid] | – | – |
| – | – | 5.4 ± 1.1 µM | 4.7 ± 1.1 µM | 4.2 ± 1.1 µM | CCCCCCCCCCC=C(CCCCCCCC(=O)O)[N+](=O)[O-] [20.9.9, 9-nitro-eicos-9-enoic acid] | – | – |
